Results reported in ChEMBL document CHEMBL1687768, “Liposomal amphotericin B and echinocandins as monotherapy or sequential or concomitant therapy in murine disseminated and pulmonary Aspergillus fumigatus infections” (Antimicrob Agents Chemother, 2010).
Values after ≈ are worked out from the molar mass of the structure shown. Active and inactive are the calls of the source. No cut-off for these calls is given here. Starred links: 1 amine or outer side, 2 acyl side, 3 side chain; linkers in the order of their positions; H or OH if unused. Positions of bridges follow the written chain, without caps; N, C: chain ends. Non-standard residues stand in square brackets, D forms with d. Residues, ends and D or L forms follow the SMILES beside them. *: point of attachment. hTyr(3S-OH,4S-OH,3'-OSO3H) = N[C@H](C(=O)O)[C@H](O)[C@@H](O)c1ccc(O)c(OS(=O)(=O)O)c1; Orn(4R-OH,5R-OH) = O=C([C@H](C[C@@H](O)[C@@H](O)N[*:3])N[*:1])[*:2]; Pro(3S-OH,4S-Me) = C[C@H]1CN[C@H](C(=O)O)[C@H]1O; X1 = CCCCCOc1ccc(-c2cc(-c3ccc(C(=O)*)cc3)no2)cc1; Gln(3R-OH) = NC(=O)C[C@@H](O)[C@H](N)C(=O)O; Hyp = O=C(O)[C@@H]1C[C@@H](O)CN1

Tests used:
[1] = tested on: Aspergillus fumigatus; test: Antifungal activity against Aspergillus fumigatus ATCC 13073 infected in immunosuppressed Swiss Webster mouse assessed as reduction in fungal burden in spleen at 10 mg/kg, iv for 6 days treated 24 hrs postinfection measured 24 hrs after last dose relative to control; type: functional, organism-based; parameters: dose 10 mg/kg
[2] = tested on: Aspergillus fumigatus; test: Antifungal activity against Aspergillus fumigatus ATCC 13073 infected in immunosuppressed Swiss Webster mouse assessed as reduction in fungal burden in kidney at 5 mg/kg, iv for 6 days measured 24 hrs after last dose relative to control; type: functional, organism-based; parameters: dose 5 mg/kg
[3] = tested on: Aspergillus fumigatus; test: Antifungal activity against Aspergillus fumigatus ATCC 13073 infected in immunosuppressed Swiss Webster mouse assessed as reduction in fungal burden in kidney at 5 mg/kg, iv for 3 days treated 4 days postinfection relative to control; type: functional, organism-based; parameters: dose 5 mg/kg
[4] = tested on: Aspergillus fumigatus; test: Antifungal activity against Aspergillus fumigatus ATCC 13073 infected in immunosuppressed Swiss Webster mouse assessed as reduction in fungal burden in spleen at 5 mg/kg, iv for 3 days treated 4 days postinfection relative to control; type: functional, organism-based; parameters: dose 5 mg/kg
[5] = tested on: Kidney; test: Drug level in immunosuppressed Swiss Webster mouse Kidney with disseminated aspergillosis assessed as compound level per gram of tissue at 10 mg/kg/day, iv for 7 days measured on day 8; type: ADME, organism-based; parameters: route intravenous; conditions: in vivo, 168 h
[6] = tested on: Spleen; test: Drug level in immunosuppressed Swiss Webster mouse spleen with disseminated aspergillosis assessed as compound level per gram of tissue at 10 mg/kg/day, iv for 7 days measured on day 8; type: ADME, organism-based; parameters: route intravenous; conditions: in vivo, 168 h
[7] = tested on: Kidney; test: Drug level in immunosuppressed Swiss Webster mouse Kidney with disseminated aspergillosis assessed as compound level per gram of tissue at 5 mg/kg/day, iv for 7 days measured on day 8; type: ADME, organism-based; parameters: route intravenous; conditions: in vivo, 168 h
[8] = tested on: Spleen; test: Drug level in immunosuppressed Swiss Webster mouse spleen with disseminated aspergillosis assessed as compound level per gram of tissue at 15 mg/kg/day, iv for 7 days measured on day 8; type: ADME, organism-based; parameters: route intravenous; conditions: in vivo, 168 h
[9] = tested on: Aspergillus fumigatus; test: Antifungal activity against Aspergillus fumigatus ATCC 13073; type: functional
[10] = tested on: Aspergillus fumigatus; test: Antifungal activity against Aspergillus fumigatus ATCC 13073 infected in immunosuppressed Swiss Webster mouse assessed as reduction in fungal burden in spleen at 15 mg/kg, iv for 6 days treated 24 hrs postinfection measured 24 hrs after last dose by galactomnnan assay relative to control; type: functional, organism-based; parameters: dose 15 mg/kg
[11] = tested on: Aspergillus fumigatus; test: Antifungal activity against Aspergillus fumigatus ATCC 13073 infected in immunosuppressed Swiss Webster mouse assessed as reduction in fungal burden in spleen at 5 mg/kg, iv for 6 days treated 24 hrs postinfection measured 24 hrs after last dose relative to control; type: functional, organism-based; parameters: dose 5 mg/kg
[12] = tested on: Kidney; test: Drug level in immunosuppressed Swiss Webster mouse Kidney with disseminated aspergillosis assessed as compound level per gram of tissue at 15 mg/kg/day, iv for 7 days measured on day 8; type: ADME, organism-based; parameters: route intravenous; conditions: in vivo, 168 h
[13] = tested on: Aspergillus fumigatus; test: Antifungal activity against Aspergillus fumigatus ATCC 13073 infected in immunosuppressed Swiss Webster mouse assessed as survival rate at 5 mg/kg, iv for 6 days treated 24hrs postinfection measured after 28 days; type: functional
[14] = tested on: Aspergillus fumigatus; test: Antifungal activity against Aspergillus fumigatus ATCC 13073 infected in immunosuppressed Swiss Webster mouse assessed as survival rate at 15 mg/kg, iv for 6 days measured after 28 days; type: functional
[15] = tested on: Spleen; test: Drug level in immunosuppressed Swiss Webster mouse spleen with disseminated aspergillosis assessed as compound level per gram of tissue at 5 mg/kg/day, iv for 7 days measured on day 8; type: ADME, organism-based; parameters: route intravenous; conditions: in vivo, 168 h
[16] = tested on: Aspergillus fumigatus; test: Antifungal activity against Aspergillus fumigatus ATCC 13073 infected in immunosuppressed Swiss Webster mouse assessed as increase in survival rate at 5 mg/kg, iv for 6 days treated 24 hrs postinfection measured after 28 days; type: functional, organism-based; parameters: dose 5 mg/kg
[17] = tested on: Aspergillus fumigatus; test: Antifungal activity against Aspergillus fumigatus ATCC 13073 infected Swiss Webster mouse pulmonary aspergillosis model assessed as organism survival at 5 mg/kg/day, iv for 5 days dosed 2 hrs post challenge; type: functional
[18] = tested on: Spleen; test: Drug level in immunosuppressed Swiss Webster mouse spleen with pulmonary aspergillosis assessed as compound level per gram of tissue at 5 mg/kg/day, iv for 5 days measured on day 6; type: ADME, organism-based; parameters: route intravenous; conditions: in vivo, 120 h
[19] = tested on: Kidney; test: Drug level in immunosuppressed Swiss Webster mouse kidney with pulmonary aspergillosis assessed as compound level per gram of tissue at 5 mg/kg/day, iv for 5 days measured on day 6; type: ADME, organism-based; parameters: route intravenous; conditions: in vivo, 120 h

SMILES	Activity [1]	Activity [2]	Activity [3]	Activity [4]	tissue concentration [5] [µg/g]	tissue concentration [6] [µg/g]	tissue concentration [7] [µg/g]	tissue concentration [8] [µg/g]	MIC [9] [µg/mL]	Activity [10]	Activity [11]	tissue concentration [12] [µg/g]	survival at 5 mg/kg [13] [%]	survival at 15 mg/kg [14] [%]	tissue concentration [15] [µg/g]	Activity [16]	survival at 5 mg/kg/day [17] [%]	tissue concentration [18] [µg/g]	tissue concentration [19] [µg/g]
CCCCCOc1ccc(-c2cc(-c3ccc(C(=O)N[C@H]4C[C@@H](O)[C@@H](O)NC(=O)[C@@H]5[C@@H](O)[C@@H](C)CN5C(=O)[C@H]([C@H](O)CC(N)=O)NC(=O)[C@H]([C@H](O)[C@@H](O)c5ccc(O)c(OS(=O)(=O)O)c5)NC(=O)[C@@H]5C[C@@H](O)CN5C(=O)[C@H]([C@@H](C)O)NC4=O)cc3)no2)cc1 [MICAFUNGIN] (X1-[Orn(4R-OH,5R-OH)]T[Hyp][hTyr(3S-OH,4S-OH,3'-OSO3H)][Gln(3R-OH)][Pro(3S-OH,4S-Me)]; lactam 1-C)	Active	Active	inactive	inactive	25.2	33.6	5.6	32.7	0.31 (≈ 0.244 µM)	Active	Active	22.5	86	57	17.9				
CC[C@H](C)C[C@H](C)CCCCCCCCC(=O)N[C@H]1C[C@@H](O)[C@@H](NCCN)NC(=O)[C@@H]2[C@@H](O)CCN2C(=O)[C@H]([C@H](O)CCN)NC(=O)[C@H]([C@H](O)[C@@H](O)c2ccc(O)cc2)NC(=O)[C@@H]2C[C@@H](O)CN2C(=O)[C@H]([C@@H](C)O)NC1=O [CASPOFUNGIN]									0.31 (≈ 0.284 µM)							Active	0	31.6	14.4
